Data reported in PubChem BioAssay AID1963986 (Molecular Pharmacology Branch, DTP, NCI, 2024).

Tested on: 171881-019-R-J1-PDC tumor spheroid viability
Assay: Anticancer human tumor 171881-019-R-J1-PDC patient-derived invasive breast carcinoma cell line growth inhibition [PI3K]
Settings: spheroids with HUVEC and MSC; for IC50: curve of first compound; for viability, T/C: stronger effect = lower value
Procedure, shortened: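 Stroma-containing spheroids: tumor line, pooled-donor HUVEC, hMSC. Treatments: targeted agents with PI3K inhibitors. Dosing: clinically relevant, half-log spacing, 10 microM ceiling without known Cmax. Read-out: cell viability.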

[1] = second compound 0.0316 µM, first compound 0.000316 µM
[2] = second compound 0.0316 µM, first compound 0.001 µM
[3] = second compound 0.0316 µM, first compound 0.00316 µM
[4] = second compound 0.0316 µM, first compound 0.01 µM
[5] = second compound 0.0316 µM, first compound 0.0316 µM
[6] = second compound 0.0316 µM, first compound 0.1 µM
[7] = second compound 0.1 µM, first compound 0.000316 µM
[8] = second compound 0.1 µM, first compound 0.001 µM
[9] = second compound 0.1 µM, first compound 0.00316 µM
[10] = second compound 0.1 µM, first compound 0.01 µM
[11] = second compound 0.1 µM, first compound 0.0316 µM
[12] = second compound 0.1 µM, first compound 0.1 µM
[13] = second compound 0.316 µM, first compound 0.000316 µM
[14] = second compound 0.316 µM, first compound 0.001 µM
[15] = second compound 0.316 µM, first compound 0.00316 µM
[16] = second compound 0.316 µM, first compound 0.01 µM
[17] = second compound 0.316 µM, first compound 0.0316 µM
[18] = second compound 0.316 µM, first compound 0.1 µM
[19] = second compound 1 µM, first compound 0.000316 µM
[20] = second compound 1 µM, first compound 0.001 µM
[21] = second compound 1 µM, first compound 0.00316 µM
[22] = second compound 1 µM, first compound 0.01 µM
[23] = second compound 1 µM, first compound 0.0316 µM
[24] = second compound 1 µM, first compound 0.1 µM
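Also: spheroids exposed to compound for 7 days before viability read.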
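For viability, T/C in this document: 100% = DMSO vehicle-treated spheroids.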

CC(=O)c1c(C)c2cnc(Nc3ccc(N4CCNCC4)cn3)nc2n(C2CCCC2)c1=O + COc1c(OCCCN2CCOCC2)ccc2c3n(c(=NC(=O)c4cnc(N)nc4)nc12)CCN3
IC50 (second compound 0.00316 µM): > 100 nM
IC50 (second compound 0.01 µM): < 0.316 nM
IC50 (second compound 0.0316 µM): < 0.316 nM
IC50 (second compound 0.1 µM): < 0.316 nM
IC50 (second compound 0.316 µM): < 0.316 nM
IC50 (second compound 1 µM): < 0.316 nM
viability, T/C (second compound 0.00316 µM, first compound 0.000316 µM): 64.3%
viability, T/C (second compound 0.00316 µM, first compound 0.001 µM): 63.9%
viability, T/C (second compound 0.00316 µM, first compound 0.00316 µM): 65.5%
viability, T/C (second compound 0.00316 µM, first compound 0.01 µM): 73%
viability, T/C (second compound 0.00316 µM, first compound 0.0316 µM): 65%
viability, T/C (second compound 0.00316 µM, first compound 0.1 µM): 70.4%
viability, T/C (second compound 0.01 µM, first compound 0.000316 µM): 48.1%
viability, T/C (second compound 0.01 µM, first compound 0.001 µM): 53.9%
viability, T/C (second compound 0.01 µM, first compound 0.00316 µM): 52.2%
viability, T/C (second compound 0.01 µM, first compound 0.01 µM): 55.1%
viability, T/C (second compound 0.01 µM, first compound 0.0316 µM): 57.9%
viability, T/C (second compound 0.01 µM, first compound 0.1 µM): 58.5%
viability, T/C [1]: 20.7%
viability, T/C [2]: 25%
viability, T/C [3]: 26.8%
viability, T/C [4]: 27%
viability, T/C [5]: 28.5%
viability, T/C [6]: 27.9%
viability, T/C [7]: 6.71%
viability, T/C [8]: 6.39%
viability, T/C [9]: 8.12%
viability, T/C [10]: 7.28%
viability, T/C [11]: 8.51%
viability, T/C [12]: 7.44%
viability, T/C [13]: 1.58%
viability, T/C [14]: 2.19%
viability, T/C [15]: 1.53%
viability, T/C [16]: 1.61%
viability, T/C [17]: 1.59%
viability, T/C [18]: 1.7%
viability, T/C [19]: 1.49%
viability, T/C [20]: 1.21%
viability, T/C [21]: 1.21%
viability, T/C [22]: 1.26%
viability, T/C [23]: 1.35%
viability, T/C [24]: 1.32%

CC(C)n1nc(-c2ccc3oc(N)nc3c2)c2c(N)ncnc21 + CC(Nc1ncnc2nc[nH]c12)c1cc2cccc(Cl)c2c(=O)n1-c1ccccc1
IC50 (second compound 0.0316 µM): 12.4 nM
IC50 (second compound 0.1 µM): 9.88 nM
IC50 (second compound 0.316 µM): 10.3 nM
IC50 (second compound 1 µM): 8.02 nM
IC50 (second compound 3.16 µM): 4.14 nM
IC50 (second compound 10 µM): 1.21 nM
viability, T/C [1]: 89.7%
viability, T/C [2]: 75.7%
viability, T/C [3]: 86.5%
viability, T/C [4]: 53.3%
viability, T/C [5]: 22.7%
viability, T/C [6]: 3.39%
viability, T/C [7]: 89.8%
viability, T/C [8]: 90.5%
viability, T/C [9]: 71.8%
viability, T/C [10]: 51.1%
viability, T/C [11]: 21%
viability, T/C [12]: 4.54%
viability, T/C [13]: 96.2%
viability, T/C [14]: 94.3%
viability, T/C [15]: 78.2%
viability, T/C [16]: 50.7%
viability, T/C [17]: 20.4%
viability, T/C [18]: 3.31%
viability, T/C [19]: 93.1%
viability, T/C [20]: 89.3%
viability, T/C [21]: 67.4%
viability, T/C [22]: 47.3%
viability, T/C [23]: 18.5%
viability, T/C [24]: 3.26%
viability, T/C (second compound 3.16 µM, first compound 0.000316 µM): 84.5%
viability, T/C (second compound 3.16 µM, first compound 0.001 µM): 71.8%
viability, T/C (second compound 3.16 µM, first compound 0.00316 µM): 53.8%
viability, T/C (second compound 3.16 µM, first compound 0.01 µM): 37%
viability, T/C (second compound 3.16 µM, first compound 0.0316 µM): 13.3%
viability, T/C (second compound 3.16 µM, first compound 0.1 µM): 3.36%
viability, T/C (second compound 10 µM, first compound 0.000316 µM): 55.8%
viability, T/C (second compound 10 µM, first compound 0.001 µM): 52.1%
viability, T/C (second compound 10 µM, first compound 0.00316 µM): 40%
viability, T/C (second compound 10 µM, first compound 0.01 µM): 22.2%
viability, T/C (second compound 10 µM, first compound 0.0316 µM): 7.46%
viability, T/C (second compound 10 µM, first compound 0.1 µM): 3.13%
